Source: patent US5081112A, “Method for treating hyperlipidemia” (Otsuka Pharmaceutical Factory Inc., priority 1986, dated 1992)
Where two headings read alike, the source gives them in different places.

Legend:
[1] = tested on: Triton WR-1339-induced hyperlipidemia in rat; assay: antilipotropic effect in Triton WR-1339-induced hyperlipidemia in rat; format: in vivo, Wistar-strain male rats; details: 50 mg/kg oral, vs control
Source text: Wistar-strain male rats of 5-9 week age were used as test animals. One test group consisting of six (6) rats.
[a] is a determined value obtained from the control group, and
[b] is a determined value obtained from the test group).

[2] = tested on: acyl-CoA:cholesterol acyltransferase (ACAT); assay: inhibitory effect in the enzymatic activities of acyl-CoA:cholesterol acyltransferase (ACAT); format: biochemical; details: rat liver microsomes, 2 min; for Inhibitory effect to ACAT (inhibitory ratio), Table 5: head prints 10^14 M; for Inhibitory effect to ACAT (inhibitory ratio): 10^-4 M, 100 µM
Method: Test for determining inhibitory effect in the enzymatic activities of acyl-CoA:cholesterol acyltranferase (ACAT)
50 Microliters of each one of the test compounds was added to rat liver microsomes fraction (containing 0.4 mg of protein) of which volume was adjusted to 150 microliters by adding 0.15 M-potassium phosphate buffer solution (pH 7.4), then the mixture was incubated at 37° C. for 10 minutes. After the incubation, the reaction was started by adding 50 microliters of 0.15 M-potassium phosphate buffer solution (pH 7.4) containing 18 nM [1-^14 C] oleoyl-CoA (10 mCi/mM) and 0.6 mg BSA (bovine serum albumin) at 37° C. for 2 minutes. The reaction was terminated by adding 1 ml of ethanol, then 4 ml of n-hexane was added and shaken, then the n-hexane layer (upper layer) was concentrated to the volume of 3 ml under nitrogen gas stream, thus obtained cholesteryl oleate was isolated by means of a silica gel thin chromatography [developing solvent=petroleum ether: diethyl ether (95:5)] and the radioactivity was measured by using a liquid scintillation counter.
(§1) Control test was also conducted by the procedures similar to those mentioned above in the test group, except that each one of the test compounds was not used.
Inhibitory effect in the enzymatic activities of acyl-CoA:cholesterol acyltransferase (ACAT) performed by each one of the test compounds was calculated, in terms of inhibitory ratio (%), from the formula on the basis of the radioactivity of the control group as follows: [formula] (wherein
[e] is a radioactivity of the control group, and
[f] is a radioactivity of the test group).

[3] = tested on: biosynthetic pathway of cholesterol; assay: inhibitory effect in biosynthetic pathway of cholesterol; format: biochemical; details: 10^-4 M; rat liver microsomes and soluble fraction; 90 min, 100 µM
Method: Test for determining inhibitory effect in biosynthetic pathway of cholesterol
Each one of the test compounds was added to rat liver microsomes fraction (containing 0.2 mg of protein) and soluble fraction (containing 2 mg of protein), then the volume of the mixture was adjusted to 100 microliters by adding 0.1 M-potassium phosphate buffer solution (pH 7.4), then this mixture was incubated at 37° C. for 10 minutes.
After the incubation, the reaction was started by adding 200 microliters of a solution containing 1 mM ATP, 10 mM glucose-1-phosphate, 6 mM glutathione, 6 mM MgCl2, […], 0.25 mM […], 0.25 mM NADP, and 1 mM [1-^14 C] sodium acetate (3.0 mCi/mM).
The whole mixture was incubated at 37° C. for 90 minutes, then the reaction was terminated by adding […] of 15%-KOH (a 95% ethanol solution), next 2 mg of cholesterol was added thereto, saponified at 75° C. for 1 hour, and cholesterol was extracted with petroleum ether, the extract was concentrated to dryness. To the residue thus obtained was added with 2.5 ml of a mixture of acetone-diethyl ether (1:1) and 2.5 ml of 1%-digitonin (a 50% ethanol solution), then this solution was allowed to stand for 1 hour in cooling condition by using ice-water to precipitate cholesterol. The precipitate was washed with acetone, a mixture of acetonediethyl ether (1:1) and diethyl ether in this order, then the radioactivity of the residue was measured by using a liquid scintillation counter.
as §1
Inhibitory effect in biosynthetic pathway of cholesterol performed by each one of the test compounds was calculated, in terms of inhibitory ratio (%), from the formula on the basis of the radioactivity of the control group as follows: [formula] (wherein
[c] is a radioactivity of the control group, and
[d] is a radio activity of the test group).

[4] = tested on: Streptozotocin-induced diabetes in rat; assay: serum lipids lowering effect to Streptozotocin-induced diabetes in rat; format: in vivo, Wistar-strain male rats; details: 4 hours after 25 mg/kg oral, Streptozocin 100 mg/kg tail vein
Method: Test for determining serum lipids lowering effect to Streptozotocin-induceddiabetes in rat
Wistar-strain male rats of 7 week age were used as test animals. One test group consisting of six (6) rats. 100 Milligrams/kg of Streptozocin was administered to the tail vein of the test rat, then 4th day after the administration with Streptozocin, 25 mg/kg of each of the test compounds which was suspended in 0.5%-CMC-Na aqueous solution was orally administered to the rat. Similar to the test group, to each of six (6) rats in control group was administered with Streptozocin, and further orally administered with 0.5%-CMC-Na aqueous solution without containing each of the test compounds.
4 Hours after the administration of each of the test compounds, the blood sample was taken from each of the test rats, and serum triglycerids was measured by using a test reagent of Triglyceride G-Test Wako (manufacturedby Wako Pure Chemicals, Co., Ltd.).

[5] = large amount for a long period; animal test; cited from earlier work
[6] = tested on: plasma high density lipoprotein cholesterol (HDLC); assay: increasing rate of plasma high density lipoprotein cholesterol (HDLC) concentration; format: in vivo, male Wistar rats; details: 300 mg/kg/day oral for 2 days; rat; vs control
Method: Increasing rate (%) of plasma high density lipoportein cholesterol (HDLC) concentration which is performed by a carboxamide compound of the general formula (I) of the present invention was conducted as follows.
Seven-week-old male Wistar rats were used.
The test compound was orally administered for 2 days at a daily dose of 300 mg/kg body weight to each of six (6) rats in test group. The dosing vehicle was 0.5% sodium carboxylmethylcellulose solution, and the dosing volume was 5 ml/kg body weight.
Similar to the procedures taken to the rats in the test group, to each one of six (6) rats in control group was orally administered 0.5% sodium carboxymethylcelluose solution only.
On day 2, after fasting for 20 hours, blood was drawn from the jagular sinus with a heparinized syringe. Plasma was obtained by centrifugation.
Plasma HDLC was determined after precipitation of other lipid fraction with heparin and Ca^2+ by using HDL-C Kit-N (manufactured by Hihon Shoji Kabushiki Kaisha).
Increasing rate (%) of plasma HDLC concentration performed by a test compound was calculated from the formula as follows: [formula]

[7] = 24 hours after Triton WR-1339 (400 mg/kg, tail vein)
[8] = 48 hours after Triton WR-1339 (400 mg/kg, tail vein)
[9] = 24 hours after Triton WR-1339 (400 mg/kg, tail vein), read-out: lowering ratio of serum triglycerides, 24 hours after Triton WR-1339
[10] = 24 hours after Triton WR-1339 (400 mg/kg, tail vein), read-out: lowering ratio of total serum cholesterol, 24 hours after Triton WR-1339
[11] = 48 hours after Triton WR-1339 (400 mg/kg, tail vein), read-out: lowering ratio of serum triglycerides, 48 hours after Triton WR-1339
[12] = 48 hours after Triton WR-1339 (400 mg/kg, tail vein), read-out: lowering ratio of total serum cholesterol, 48 hours after Triton WR-1339

Compound: 4-diethoxyphosphinoylmethyl-N-(4-bromo-2-cyanophenyl)benzamide [Test compound No. 71]
- lowering ratio of serum triglycerides, 24 hours after Triton WR-1339 [1, 7]: 85.3%
- lowering ratio of total serum cholesterol, 24 hours after Triton WR-1339 [1, 7]: 51.6%
- lowering ratio of serum triglycerides, 48 hours after Triton WR-1339 [1, 8]: 95.9%
- lowering ratio of total serum cholesterol, 48 hours after Triton WR-1339 [1, 8]: 67.9%
- Inhibitory effect to ACAT (inhibitory ratio), Table 5 [2]: 79.2%
- Inhibitory ratio of cholesterol biosynthesis [3]: 56.6%

Compound: CCC(C)(Oc1ccc(C2(c3ccc(OC(C)(CC)C(=O)O)cc3)CCCCC2)cc1)C(=O)O (centres unmarked) [Clinofibrate, reference compound]
- inhibition in vivo at 50 mg/kg [1, 9]: 13.6%
- inhibition in vivo at 50 mg/kg [1, 10]: 9.8%
- inhibition in vivo at 50 mg/kg [1, 11]: 1.1%
- inhibition in vivo at 50 mg/kg [1, 12]: 1.9%
- Serum triglyceride [4]: 2,067 mg/dl

Compound: CCOC(=O)C(C)(C)Oc1ccc(Cl)cc1 [Clofibrate]
- formation of hepatic tumor [5]: the formation of hepatic tumor was observed

Compound: CCOP(=O)(Cc1ccc(C(=O)Nc2ccc(Br)cc2)cc1)OCC [compound 8]
- inhibition in vivo at 50 mg/kg [1, 9]: 86.8%
- inhibition in vivo at 50 mg/kg [1, 10]: 52.2%
- inhibition in vivo at 50 mg/kg [1, 11]: 92.5%
- inhibition in vivo at 50 mg/kg [1, 12]: 63.6%
- Serum triglyceride [4]: 471 mg/dL

Compound: CCOP(=O)(Cc1ccc(C(=O)N(Cc2ccccc2)c2ccc([N+](=O)[O-])cc2)cc1)OCC [compound 10]
- inhibition in vivo at 50 mg/kg [1, 9]: 26.9%
- inhibition in vivo at 50 mg/kg [1, 10]: 0%
- inhibition in vivo at 50 mg/kg [1, 11]: 68.7%
- inhibition in vivo at 50 mg/kg [1, 12]: 16.1%
- Inhibitory effect to ACAT (inhibitory ratio) [2]: 69.4%
- Inhibitory ratio of cholesterol biosynthesis [3]: 75.6%

Compound: CC(C)OP(=O)(Cc1ccc(C(=O)NCCc2ccccc2)cc1)OC(C)C [compound 11]
- inhibition in vivo at 50 mg/kg [1, 9]: 0%
- inhibition in vivo at 50 mg/kg [1, 10]: 13.5%
- inhibition in vivo at 50 mg/kg [1, 11]: 56.8%
- inhibition in vivo at 50 mg/kg [1, 12]: 32.6%
- Inhibitory effect to ACAT (inhibitory ratio), Table 5 [2]: 83.3%
- Inhibitory ratio of cholesterol biosynthesis [3]: 67.4%

Compound: CCCCCCNC(=O)c1ccc(C(C)P(=O)(OC(C)C)OC(C)C)cc1 (centres unmarked) [compound 26]
- Inhibitory effect to ACAT (inhibitory ratio), Table 5 [2]: 88.9%
- Inhibitory ratio of cholesterol biosynthesis [3]: 67.4%

Compound: CCOP(=O)(Cc1ccc(C(=O)Nc2cccc(C(F)(F)F)c2)cc1)OCC [compound 27]
- Inhibitory effect to ACAT (inhibitory ratio), Table 5 [2]: 39.5%
- Inhibitory ratio of cholesterol biosynthesis [3]: 36.2%

Compound: O=C(Nc1c(Cl)cccc1Cl)c1ccc(CP(=O)(Oc2ccccc2)Oc2ccccc2)cc1 [compound 29]
- Inhibitory effect to ACAT (inhibitory ratio), Table 5 [2]: 73.9%
- Inhibitory ratio of cholesterol biosynthesis [3]: 35.8%

Compound: CCOP(=O)(Cc1ccc(C(=O)NCCC(c2ccccc2)c2ccccc2)cc1)OCC [compound 31]
- Inhibitory effect to ACAT (inhibitory ratio), Table 5 [2]: 87.7%
- Inhibitory ratio of cholesterol biosynthesis [3]: 65.4%

Compound: CCOP(=O)(Cc1ccc(C(=O)N(c2ccccc2)C(C)C)cc1)OCC [compound 32]
- Inhibitory effect to ACAT (inhibitory ratio), Table 5 [2]: 20.1%
- Inhibitory ratio of cholesterol biosynthesis [3]: 36.4%

Compound: CCOP(=O)(Cc1ccc(C(=O)N(c2ccccc2)c2ccccc2)cc1)OCC [compound 36]
- Inhibitory effect to ACAT (inhibitory ratio), Table 5 [2]: 63.1%
- Inhibitory ratio of cholesterol biosynthesis [3]: 61.1%

Compound: CCOP(=O)(Cc1ccc(C(=O)N(Cc2ccccc2F)c2ccccc2)cc1)OCC [compound 41]
- Inhibitory effect to ACAT (inhibitory ratio) [2]: 84.0%
- Inhibitory ratio of cholesterol biosynthesis [3]: 84.2%

Compound: CCOP(=O)(Cc1ccc(C(=O)N(Cc2ccccc2)c2cccc(C(F)(F)F)c2)cc1)OCC [compound 50]
- Inhibitory effect to ACAT (inhibitory ratio) [2]: 84.8%
- Inhibitory ratio of cholesterol biosynthesis [3]: 78.2%

Compound: CCOP(=O)(Cc1ccc(C(=O)N(Cc2ccccc2)c2cc(OC)c(OC)c(OC)c2)cc1)OCC [compound 52]
- Inhibitory effect to ACAT (inhibitory ratio) [2]: 60.5%
- Inhibitory ratio of cholesterol biosynthesis [3]: 65.6%

Compound: CCOP(=O)(Cc1ccc(C(=O)N2CCN(c3ccc(Cl)cc3)CC2)cc1)OCC [compound 58]
- Inhibitory effect to ACAT (inhibitory ratio) [2]: 56.6%
- Inhibitory ratio of cholesterol biosynthesis [3]: 58.4%

Compound: CCCCCCNC(=O)c1ccc(C(C)P(=O)(OCC)OCC)cc1 (centres unmarked) [compound 63]
- Inhibitory effect to ACAT (inhibitory ratio) [2]: 88.9%
- Inhibitory ratio of cholesterol biosynthesis [3]: 58.9%

Compound: CCOP(=O)(Cc1cccc(C(=O)Nc2ccccc2)c1)OCC [compound 64]
- Inhibitory effect to ACAT (inhibitory ratio), Table 5 [2]: 37.6%

Compound: CCOP(=O)(Cc1ccc(C(=O)N(Cc2ccccc2)c2ccccc2)cc1)OCC [compound 65]
- Inhibitory effect to ACAT (inhibitory ratio) [2]: 87.7%

Compound: CCOP(=O)(Cc1ccc(C(=O)Nc2ccccc2C(=O)O)cc1)OCC [compound 66]
- Inhibitory effect to ACAT (inhibitory ratio) [2]: 26.0%

Compound: CCOP(=O)(Cc1ccc(C(=S)Nc2ccccc2)cc1)OCC [compound 70]
- Inhibitory effect to ACAT (inhibitory ratio) [2]: 39.4%

Compound: CCOP(=O)(Cc1ccc(C(=O)Nc2ccc(Br)cc2C#N)cc1)OCC [compound 71]
- Increasing rate (%) of high density lipids concentration in the serum (plasma HDLC) [6]: 193%

Compound: CCOP(=O)(Cc1ccc(C(=O)Nc2ccc(Cl)cc2C#N)cc1)OCC [compound 72]
- Increasing rate (%) of high density lipids concentration in the serum (plasma HDLC) [6]: 196%

Compound: CCOP(=O)(Cc1ccc(C(=O)Nc2ccc(C#N)cc2Cl)cc1)OCC [compound 73]
- Increasing rate (%) of high density lipids concentration in the serum (plasma HDLC) [6]: 187%

Compound: CCOP(=O)(Cc1ccc(C(=O)Nc2ccc(I)cc2C#N)cc1)OCC [compound 74]
- Increasing rate (%) of high density lipids concentration in the serum (plasma HDLC) [6]: 187%

Compound: CCOP(=O)(Cc1ccc(C(=O)Nc2ccc(C#N)cc2Br)cc1)OCC [compound 75]
- Increasing rate (%) of high density lipids concentration in the serum (plasma HDLC) [6]: 222%

Compound: CCOP(=O)(Cc1ccc(C(=O)Nc2ccc(Br)c(C#N)c2)cc1)OCC [compound 76]
- Increasing rate (%) of high density lipids concentration in the serum (plasma HDLC) [6]: 111%

Compound: CCOP(=O)(Cc1ccc(C(=O)Nc2ccc(C#N)cc2I)cc1)OCC [compound 77]
- Increasing rate (%) of high density lipids concentration in the serum (plasma HDLC) [6]: 184%
